Laboratory results taken from ChEMBL document CHEMBL4840331, “Configurational Assignment of a Flexible Benzo[g]isochromene Stereodiad from Rubia philippinensis and Inhibition of Soluble Epoxide Hydrolase Activity” (J Nat Prod, 2021).
pIC50: −log10 of the molar value.

Molecular target: T1, Bifunctional epoxide hydrolase 2 (Homo sapiens, UniProt P34913)
T1 sequence (P34913 whole entry): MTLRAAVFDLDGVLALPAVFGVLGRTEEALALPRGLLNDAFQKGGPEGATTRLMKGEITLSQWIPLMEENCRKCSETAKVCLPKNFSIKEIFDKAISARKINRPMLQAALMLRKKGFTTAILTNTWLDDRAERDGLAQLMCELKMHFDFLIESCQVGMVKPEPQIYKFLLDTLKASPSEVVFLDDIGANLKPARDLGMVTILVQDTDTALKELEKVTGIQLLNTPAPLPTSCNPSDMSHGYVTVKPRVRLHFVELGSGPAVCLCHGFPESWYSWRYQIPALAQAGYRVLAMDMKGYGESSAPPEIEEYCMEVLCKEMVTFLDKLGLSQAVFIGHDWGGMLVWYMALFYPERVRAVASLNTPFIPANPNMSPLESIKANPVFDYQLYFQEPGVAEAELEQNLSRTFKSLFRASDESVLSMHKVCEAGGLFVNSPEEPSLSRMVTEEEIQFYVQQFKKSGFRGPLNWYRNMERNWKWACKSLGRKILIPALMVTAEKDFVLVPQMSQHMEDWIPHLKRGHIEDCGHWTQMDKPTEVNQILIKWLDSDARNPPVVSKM
Assay: Inhibition of sEH (unknown origin) expressed in baculovirus expression system incubated for 1 hr

- pIC50: 6.22
Compound: C[C@@H](C(=O)O)[C@H]1Cc2c(c(O)c3ccccc3c2O[C@@H]2O[C@H](CO)[C@@H](O)[C@H](O)[C@H]2O)C(=O)O1
